# According to patent US20250228239A1, “MOLECULES HAVING PESTICIDAL UTILITY, AND INTERMEDIATES, COMPOSITIONS, AND PROCESSES, RELATED THERETO” (priority 2024, published 2025):
# Where two headings read alike, the source gives them in different places.
# Columns and labels:
# [1] = test system: Beet Armyworm (Spodoptera exigua, LAPHEG); assay: Bioassays on Beet Armyworm (BAW), 128-well diet tray assay; assay type: in vivo; settings: Spodoptera exigua; for mortality at 50 µg/cm2: 168 h, second instar larvae, 50 μg/cm^2 of test molecule on artificial diet, 25° C., five to seven days, average of eight wells, read-out: BAW % Control (or Mortality) rating
# Outline: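 Diet-overlay assay: 50 μg/cm^2 compound applied in 90:10 acetone-water to artificial diet, allowed to dry, then infested with 1–5 L2 larvae/well; 8 wells/compound; covered, vented; 25° C., 14:10 L:D, 5–7 d; % mortality per well, averaged.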
# [2] = test system: Cabbage Looper (Trichoplusia ni, TRIPNI); assay: Bioassays on Cabbage Looper (CL), 128-well diet tray assay; assay type: in vivo; settings: Trichoplusia ni; for mortality at 50 µg/cm2: 168 h, second instar larvae, 50 μg/cm^2 of test molecule on artificial diet, 25° C., five to seven days, average of eight wells, read-out: CL % Control (or Mortality) rating
# Outline: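 Second-instar larvae (1–5 per well) placed on artificial diet surface-treated with 50 μg/cm^2 test molecule applied in 90:10 acetone-water and dried. Held at 25° C., 14:10 light-dark, for five to seven days. Percent mortality scored per well and averaged over eight wells.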
# [3] = Beet Armyworm, Table ABC / ABC-DP rating, read-out: BAW rating
# [4] = Cabbage Looper, Table ABC / ABC-DP rating, read-out: CL rating
# [5] = Table ABC: Biological Results, species BAW, read-out: BAW
# [6] = Table ABC: Biological Results, species CL, read-out: CL
# [7] = Beet Armyworm, rating class, read-out: BAW
# [8] = Cabbage Looper, rating class, read-out: CL
Compound,"pest or weed control at 50 µg/cm2 [1, 3]","pest or weed control at 50 µg/cm2 [2, 4]","pest or weed control at 50 µg/cm2 [1, 5]","pest or weed control at 50 µg/cm2 [2, 6]","pest or weed control at 50 µg/cm2 [1, 7]","pest or weed control at 50 µg/cm2 [2, 8]",also measured
"O=C(Nc1ccc(F)c(NC(=O)C2(COC(F)(F)F)CC2)c1F)c1cc(NC(=O)[C@H]2[C@H](c3ccc(F)c(C(F)(F)F)c3)C2(Cl)Cl)ccc1Cl [F1821, 2-Chloro-5-((1R,3R)-2,2-dichloro-3-(4-fluoro-3-(trifluoromethyl)phenyl)cyclopropane-1-carboxamido)-N-(2,4-difluoro-3-(1-((trifluoromethoxy)methyl)cyclopropane-1-carboxamido)phenyl)benzamide]",50 to 100%,50 to 100%,,,,,
"COCCN(C(=O)OC(C)(C)C)c1ccc(NC(=O)c2cc(NC(=O)[C@H]3[C@H](c4cc(Cl)cc(Cl)c4)C3(Cl)Cl)ccc2Cl)c(C)c1 (relative stereo) [F1159, trans-tert-Butyl-(4-(2-chloro-5-(2,2-dichloro-3-(3,5-dichlorophenyl)cyclopropane-1-carboxamido)benzamido)-3-methylphenyl)(2-methoxyethyl)carbamate]",,,50 to 100%,50 to 100%,,,
"O=C(COCC(F)(F)F)Nc1c(F)ccc(NC(=O)c2cc(NC(=O)[C@H]3[C@H](c4ccc(F)c(Cl)c4)C3(Cl)Cl)ccc2Cl)c1F [F1867, 2-Chloro-5-((1R,3R)-2,2-dichloro-3-(3-chloro-4-fluorophenyl)cyclopropane-1-carboxamido)-N-(2,4-difluoro-3-(2-(2,2,2-trifluoroethoxy)acetamido)phenyl) benzamide]",50 to 100%,50 to 100%,,,,,
"O=C(Nc1c(F)ccc(NC(=O)C(F)F)c1F)c1cc(NC(=O)[C@H]2[C@H](c3ccc(F)c(C(F)(F)F)c3)C2(Cl)Cl)cc(F)c1F [F1573, 5-((1R,3R)-2,2-Dichloro-3-(4-fluoro-3-(trifluoromethyl)phenyl)cyclopropane-1-carboxamido)-N-(3-(2,2-difluoroacetamido)-2,6-difluorophenyl)-2,3-difluorobenzamide]",,,,,50 to 100%,50 to 100%,
"O=C(Nc1ccc(F)cc1F)c1cc(NC(=O)[C@H]2[C@H](c3cc(F)cc(Br)c3F)C2(Cl)Cl)ccc1Cl (relative stereo) [F1093, trans-5-(3-(3-bromo-2,5-difluorophenyl)-2,2-dichlorocyclopropane-1-carboxamido)-2-chloro-N-(2,4-difluorophenyl)benzamide]",,,50 to 100%,50 to 100%,,,
"Nc1c(F)ccc(NC(=O)c2cc(NC(=O)[C@H]3[C@@H](c4cc(F)c(Cl)c(C(F)(F)F)c4)C3(Cl)Cl)ccc2Cl)c1F (relative stereo) [F1168, cis-N-(3-Amino-2,4-difluorophenyl)-2-chloro-5-(2,2-dichloro-3-(4-chloro-3-fluoro-5-(trifluoromethyl)phenyl)cyclopropane-1-carboxamido)benzamide]",,,50 to 100%,50 to 100%,,,
"O=C(Nc1cc(NC(=O)C(F)(F)F)c(F)cc1F)c1cc(NC(=O)[C@H]2[C@H](c3ccc(Cl)c(Cl)c3)C2(Cl)Cl)cc(F)c1F [F1582, 5-((1R,3R)-2,2-Dichloro-3-(3,4-dichlorophenyl)cyclopropane-1-carboxamido)-N-(2,4-difluoro-5-(2,2,2-trifluoroacetamido)phenyl)-2,3-difluorobenzamide]",,,,,50 to 100%,50 to 100%,
"O=C(NCC(F)(F)F)c1c(Cl)ccc(NC(=O)[C@H]2[C@H](c3ccc(F)c(Cl)c3)C2(Cl)Cl)c1F [F2072, 6-Chloro-3-((1R,3R)-2,2-dichloro-3-(3-chloro-4-fluorophenyl)cyclopropane-1-carboxamido)-2-fluoro-N-(2,2,2-trifluoroethyl)benzamide]",50 to 100%,50 to 100%,,,,,
"C=CCN(C(=O)c1cc(NC(=O)[C@H]2[C@H](c3cc(Cl)cc(Cl)c3)C2(Cl)Cl)ccc1Cl)c1ccc(F)cc1C#N (relative stereo) [F1055, trans-N-Allyl-2-chloro-N-(2-cyano-4-fluorophenyl)-5-(2,2-dichloro-3-(3,5-dichlorophenyl)cyclopropane-1-carboxamido)benzamide]",,,50 to 100%,50 to 100%,,,
"O=C(Nc1cc(NC(=O)C(F)F)c(F)cc1F)c1cc(NC(=O)[C@H]2[C@H](c3ccc(F)c(C(F)(F)F)c3)C2(Cl)Cl)ccc1Cl [F1540, 2-Chloro-5-((1R,3R)-2,2-dichloro-3-(4-fluoro-3-(trifluoromethyl)phenyl)cyclopropane-1-carboxamido)-N-(5-(2,2-difluoroacetamido)-2,4-difluorophenyl)benzamide]",,,,,50 to 100%,50 to 100%,
"Cc1ccc(NNC(=O)c2cc(NC(=O)[C@H]3[C@H](c4cc(Cl)cc(Cl)c4)C3(Cl)Cl)ccc2Cl)cc1 (relative stereo) [F2575, trans-2,2-Dichloro-N-(4-chloro-3-(2-(p-tolyl)hydrazine-1-carbonyl)phenyl)-3-(3,5-dichlorophenyl)cyclopropane-1-carboxamide]",50 to 100%,50 to 100%,,,,,mortality at 50 µg/cm2 [1]: 50 to 100%; mortality at 50 µg/cm2 [2]: 50 to 100%
"O=C(Nc1ccc(F)cc1F)c1cc(NC(=O)[C@H]2[C@H](c3ccc(F)c(F)c3)C2(Cl)Cl)ccc1Cl [F1750, 2-Chloro-5-((1R,3R)-2,2-dichloro-3-(3,4-difluorophenyl)cyclopropane-1-carboxamido)-N-(2,4-difluorophenyl)benzamide]",,,,,50 to 100%,50 to 100%,
"Nc1cc(F)ccc1NC(=O)c1cc(NC(=O)[C@H]2[C@H](c3ccc(Cl)c(Cl)c3)C2(Cl)Cl)ccc1Cl (relative stereo) [DP6, trans-N-(2-amino-4-fluorophenyl)-2-chloro-5-(2,2-dichloro-3-(3,4-dichlorophenyl)cyclopropane-1-carboxamido)benzamide]",50 to 100%,50 to 100%,,,,,mortality at 50 µg/cm2 [1]: 50 to 100%; mortality at 50 µg/cm2 [2]: 50 to 100%
"N#CC1(C(=O)Nc2c(F)ccc(NC(=O)c3cc(NC(=O)[C@H]4[C@H](c5ccc(Cl)c(Cl)c5)C4(Cl)Cl)ccc3Cl)c2F)CC1 [F1609, 2-Chloro-N-(3-(1-cyanocyclopropane-1-carboxamido)-2,4-difluorophenyl)-5-((1R,3R)-2,2-dichloro-3-(3,4-dichlorophenyl)cyclopropane-1-carboxamido)benzamide]",,,,,50 to 100%,50 to 100%,
"CC(F)(F)CCC(=O)Nc1c(F)ccc(NC(=O)c2cc(NC(=O)[C@H]3[C@H](c4ccc(F)c(Cl)c4)C3(Cl)Cl)ccc2Cl)c1F [F1864, 2-Chloro-5-((1R,3R)-2,2-dichloro-3-(3-chloro-4-fluorophenyl)cyclopropane-1-carboxamido)-N-(3-(4,4-difluoropentanamido)-2,4-difluorophenyl)benzamide]",50 to 100%,50 to 100%,,,,,
"O=C(Nc1ccc(F)cc1NC(=O)C(F)(F)F)c1cc(NC(=O)[C@H]2[C@H](c3ccc(Cl)c(Cl)c3)C2(Cl)Cl)ccc1Cl (relative stereo) [F1121, trans-2-Chloro-5-(2,2-dichloro-3-(3,4-dichlorophenyl)cyclopropane-1-carboxamido)-N-(4-fluoro-2-(2,2,2-trifluoroacetamido)phenyl)benzamide]",,,50 to 100%,50 to 100%,,,
